From the supplement of paper PMC10307832

Columns and labels:
Experiment in all cases: relative viability (nuclei count vs DMSO), 5 days (fraction); higher = more cells survive
BAM7 + Olaparib = compound: CCOC1=CC=CC=C1N=NC2=C(NN(C2=O)C3=NC(=CS3)C4=CC=CC=C4)C [BAM7] + O=C(c1cc(Cc2n[nH]c(=O)c3ccccc23)ccc1F)N1CCN(C(=O)C2CC2)CC1 [Olaparib] (partner 8 µM)
Procedure, shortened: (§1)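 Lung cancer cell lines were seeded in 1536-well plates and dosed by pin tool the next day, with either a single drug or a fixed anchor-drug dose combined with five library-drug doses (not always all listed) spaced in √10 steps. Five days later, one step fixed the cells and stained their nuclei (final 0.05% Triton X-100, 1% formaldehyde, 1 ug/ml Hoechst), and nuclei were counted on 4× images. Relative viability is the nuclei count in treated wells divided by the count in vehicle wells, and each value is the median of duplicate plates.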

BAM7 + Lapatinib = compound: CCOC1=CC=CC=C1N=NC2=C(NN(C2=O)C3=NC(=CS3)C4=CC=CC=C4)C [BAM7] + CS(=O)(=O)CCNCc1ccc(-c2ccc3ncnc(Nc4ccc(OCc5cccc(F)c5)c(Cl)c4)c3c2)o1 [Lapatinib] (partner 2 µM)
Procedure, shortened: as §1

BAM7 + Tozasertib = compound: CCOC1=CC=CC=C1N=NC2=C(NN(C2=O)C3=NC(=CS3)C4=CC=CC=C4)C [BAM7] + Cc1cc(Nc2cc(N3CCN(C)CC3)nc(Sc3ccc(NC(=O)C4CC4)cc3)n2)n[nH]1 [Tozasertib] (partner 0.1 µM)
Procedure, shortened: as §1

BAM7 + Bortezomib = compound: CCOC1=CC=CC=C1N=NC2=C(NN(C2=O)C3=NC(=CS3)C4=CC=CC=C4)C [BAM7] + CC(C)C[C@H](NC(=O)[C@H](Cc1ccccc1)NC(=O)c1cnccn1)B(O)O [Bortezomib] (partner 0.002 µM)
Procedure, shortened: as §1

BAM7 + Linsitinib = compound: CCOC1=CC=CC=C1N=NC2=C(NN(C2=O)C3=NC(=CS3)C4=CC=CC=C4)C [BAM7] + C[C@]1(O)C[C@@H](c2nc(-c3ccc4ccc(-c5ccccc5)nc4c3)c3c(N)nccn32)C1 [Linsitinib] (partner 1 µM)
Procedure, shortened: as §1

| Cell Line | relative viability (BAM7 + Olaparib; first compound 0.5 µM) | relative viability (BAM7 + Olaparib; first compound 5 µM) | relative viability (BAM7 + Olaparib; first compound 15.81 µM) | relative viability (BAM7 + Olaparib; first compound 50 µM) | relative viability (BAM7 + Lapatinib; first compound 0.5 µM) | relative viability (BAM7 + Lapatinib; first compound 5 µM) | relative viability (BAM7 + Lapatinib; first compound 15.81 µM) | relative viability (BAM7 + Lapatinib; first compound 50 µM) | relative viability (BAM7 + Tozasertib; first compound 0.5 µM) | relative viability (BAM7 + Tozasertib; first compound 5 µM) | relative viability (BAM7 + Tozasertib; first compound 15.81 µM) | relative viability (BAM7 + Tozasertib; first compound 50 µM) | relative viability (BAM7 + Bortezomib; first compound 0.5 µM) | relative viability (BAM7 + Bortezomib; first compound 5 µM) | relative viability (BAM7 + Bortezomib; first compound 15.81 µM) | relative viability (BAM7 + Bortezomib; first compound 50 µM) | relative viability (BAM7 + Linsitinib; first compound 0.5 µM) | relative viability (BAM7 + Linsitinib; first compound 5 µM) | relative viability (BAM7 + Linsitinib; first compound 15.81 µM) | relative viability (BAM7 + Linsitinib; first compound 50 µM) |
| --- | --- | --- | --- | --- | --- | --- | --- | --- | --- | --- | --- | --- | --- | --- | --- | --- | --- | --- | --- | --- |
| NCI-H3122 | 0.428 | 0.579 | 0.416 | 0.53 | 1.09 | 1.04 | 1.04 | 1.03 | 0.44 | 0.387 | 0.351 | 0.324 | 1.06 | 1.13 | 1.04 | 1.05 | 0.969 | 1.08 | 1 | 1.02 |
| HCC-827 | 0.0377 | 0.627 | 0.62 | 0.649 | 0.205 | 0.2 | 0.205 | 0.202 | 0.405 | 0.433 | 0.395 | 0.388 | 1.1 | 1.17 | 1.05 | 0.917 | 0.957 | 0.912 | 0.905 | 0.881 |
| SK-LU-1 | 0.463 | 0.542 | 0.444 | 0.55 | 0.78 | 1.02 | 0.846 | 0.897 | 0.332 | 0.449 | 0.341 | 0.323 | 1.18 | 1.46 | 1.3 | 1.39 | 0.969 | 1.21 | 1.22 | 1.21 |
| NCI-H1975 | 0.498 | 0.617 | 0.393 | 0.602 | 0.848 | 0.77 |  | 0.819 | 0.41 | 0.512 | 0.465 | 0.512 | 0.356 | 0.379 |  | 0.386 | 0.847 | 0.981 |  | 0.898 |
| NCI-H1651 | 0.192 | 0.202 | 0.198 | 0.175 | 0.747 | 0.756 | 0.831 | 0.858 | 0.674 | 0.758 | 0.637 | 0.638 | 0.992 | 0.917 | 0.988 | 0.926 | 1.05 | 1.09 | 1.01 | 1.02 |
| LCLC-97TM1 | 0.362 | 0.472 |  | 0.432 | 1 | 1.21 | 1.04 | 1.31 | 0.207 | 0.442 | 0.261 | 0.172 | 0.721 | 0.608 | 0.898 | 0.76 | 0.174 | 0.184 | 0.176 | 0.179 |
| NCI-H727 | 0.707 | 0.58 | 0.522 | 0.573 | 0.923 | 1.1 | 0.788 | 0.834 | 0.496 | 0.599 | 0.555 | 0.52 | 0.832 | 1.14 | 0.916 | 0.739 | 0.273 | 0.416 | 0.314 | 0.245 |
| NCI-H1355 | 0.753 | 0.725 | 0.679 | 0.718 | 0.972 | 1.01 | 0.986 | 1.02 | 0.515 | 0.461 | 0.361 | 0.459 | 1.2 | 1.16 | 1.13 | 1.11 | 0.89 | 0.823 | 0.729 | 0.792 |
| HOP-62 | 0.517 | 0.33 | 0.449 | 0.518 | 1.09 | 1.27 | 0.969 | 0.986 | 0.417 | 0.413 | 0.337 | 0.308 | 0.854 | 0.98 | 1.05 | 0.847 | 1.09 | 1.23 | 0.904 | 0.756 |
| NCI-H2085 | 0.83 | 0.804 | 0.785 | 0.786 | 0.764 | 0.612 | 0.74 | 0.881 | 0.608 | 0.496 | 0.401 | 0.567 | 1.07 | 1.12 | 0.979 | 1.16 | 0.968 | 1.03 | 0.821 | 0.911 |
